For 21 compounds, EC50 and IC50 results are on record in US20260028336A1 (Arcus Biosciences, Inc., priority 2022, published 2026).

Some results are limits rather than exact numbers.

One assay has as its system Jurkat cells. Nature of the assay: IL-2 secretion assay in CD3/CD28-activated Jurkat cells (AlphaLISA). As to conditions: Homo sapiens, CD3/CD28 T Cell Activator, 24 h, IL-2 AlphaLISA. The format is cell-based. An outline of the steps:
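Jurkat cells (50,000/well) were preincubated 1 h at 37° C with compound in a 16-point 1:2 series spanning 10 μM to 300 pM final. Cells were then activated with CD3/CD28 T cell activator, and secreted IL-2 was read by AlphaLISA. EC50 came from 4-parameter logistic fits.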

The next assay has as its target T1, Cbl-b (Homo sapiens, UniProt Q13191).
T1 construct: biotin (biotinylated)
Nature of the assay: Cbl-b probe displacement HTRF binding assay. The settings on record: 0.4 nM biotinylated Cbl-b, 150 nM BODIPY probe. In outline:
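Biotinylated Cbl-b was preincubated with compound for 60 min at room temperature in HEPES/NaCl/Triton/TCEP/BSA buffer. BODIPY probe was added for 15 min, followed by streptavidin-terbium, and the HTRF signal was read. Displacement was normalised to DMSO and no-protein controls, and affinity was obtained from a four-parameter dose-response fit.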

T1 sequence (Q13191 whole entry, species assumed): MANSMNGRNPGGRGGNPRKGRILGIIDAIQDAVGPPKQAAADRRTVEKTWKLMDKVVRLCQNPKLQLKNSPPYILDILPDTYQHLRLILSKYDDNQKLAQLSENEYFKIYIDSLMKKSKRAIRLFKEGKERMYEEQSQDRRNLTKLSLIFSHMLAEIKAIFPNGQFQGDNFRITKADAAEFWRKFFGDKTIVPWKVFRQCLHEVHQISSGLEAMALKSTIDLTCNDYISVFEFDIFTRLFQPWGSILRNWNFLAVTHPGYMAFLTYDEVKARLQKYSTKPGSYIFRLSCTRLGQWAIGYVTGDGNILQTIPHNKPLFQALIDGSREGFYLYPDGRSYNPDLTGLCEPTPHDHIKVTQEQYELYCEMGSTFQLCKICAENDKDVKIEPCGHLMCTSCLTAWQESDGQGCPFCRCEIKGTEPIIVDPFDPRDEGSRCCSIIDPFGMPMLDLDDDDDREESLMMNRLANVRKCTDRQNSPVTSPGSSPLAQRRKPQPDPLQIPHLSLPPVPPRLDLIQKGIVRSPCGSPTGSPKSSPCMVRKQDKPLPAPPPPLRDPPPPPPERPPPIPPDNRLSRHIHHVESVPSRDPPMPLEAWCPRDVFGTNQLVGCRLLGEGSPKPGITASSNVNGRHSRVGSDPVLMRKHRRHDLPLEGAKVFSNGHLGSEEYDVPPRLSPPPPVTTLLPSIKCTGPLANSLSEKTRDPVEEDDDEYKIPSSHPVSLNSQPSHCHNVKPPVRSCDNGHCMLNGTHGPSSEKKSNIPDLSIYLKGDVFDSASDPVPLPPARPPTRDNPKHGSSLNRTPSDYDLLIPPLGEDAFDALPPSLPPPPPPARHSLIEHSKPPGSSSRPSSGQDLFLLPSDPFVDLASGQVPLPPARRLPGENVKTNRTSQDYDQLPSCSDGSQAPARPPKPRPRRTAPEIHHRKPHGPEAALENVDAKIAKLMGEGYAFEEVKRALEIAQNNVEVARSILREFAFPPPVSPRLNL

As to `C[C@@H]1CN(Cc2cc3c(C4CC4)cn(-c4cccc(C5(c6nncn6C)CC6(CC6)C5)c4)c(=O)c3[nH]2)CCO1` [Example 71, 4-cyclopropyl-2-[[(2R)-2-methylmorpholin-4-yl]methyl]-6-[3-[5-(4-methyl-1,2,4-triazol-3-yl)spiro[2.3]hexan-5-yl]phenyl]-1H-pyrrolo[2,3-c]pyridin-7-one], the EC50 with Jurkat cells is 100 to 1000 nM. This compound had an IC50 at Cbl-b of less than 100 nM.

In the assay on Jurkat cells, `CC(C)[C@H]1CNCCN1Cc1cc2c(C3CC3)cn(-c3cccc(C4(c5nncn5C)CC5(CC5)C4)c3)c(=O)c2[nH]1` [Example 72, 4-cyclopropyl-6-{3-[5-(4-methyl-4H-1,2,4-triazol-3-yl)spiro[2.3]hexan-5-yl]phenyl}-2-{[(2S)-2-(propan-2-yl)piperazin-1-yl]methyl}-1H,6H,7H-pyrrolo[2,3-c]pyridin-7-one] had an EC50 of 1000 to 5000 nM. In addition, the IC50 on Cbl-b lay within 100 to 1000 nM.

`CC(C)[C@H]1CN(C)CCN1Cc1cc2c(C3CC3)cn(-c3cccc(C4(c5nncn5C)CC5(CC5)C4)c3)c(=O)c2[nH]1` [Example 73, 4-cyclopropyl-2-{[(2S)-4-methyl-2-(propan-2-yl)piperazin-1-yl]methyl}-6-{3-[5-(4-methyl-4H-1,2,4-triazol-3-yl)spiro[2.3]hexan-5-yl]phenyl}-1H,6H,7H-pyrrolo[2,3-c]pyridin-7-one] displayed an EC50 in the assay on Jurkat cells of 100 to 1000 nM. The compound also yielded an IC50 at Cbl-b of less than 100 nM.

With `C[C@H]1CCCN(Cc2cc3c(C4CC4)cn(-c4cccc(C5(c6nncn6C)CC6(CC6)C5)c4)c(=O)c3[nH]2)C1` [Example 74, 4-cyclopropyl-2-[[(3S)-3-methylpiperidin-1-yl]methyl]-6-[3-[5-(4-methyl-1,2,4-triazol-3-yl)spiro[2.3]hexan-5-yl]phenyl]-1H-pyrrolo[2,3-c]pyridin-7-one], the 50% effective concentration (EC50) in the assay on Jurkat cells is less than 100 nM. Further, the IC50 at Cbl-b is less than 100 nM.

`C[C@H]1CCCN(Cc2cc3c(C4CC4)cn(-c4cccc(C5(Cc6nncn6C)COC5)c4)c(=O)c3[nH]2)C1` [Example 75, 4-cyclopropyl-2-[[(3S)-3-methylpiperidin-1-yl]methyl]-6-[3-[3-[(4-methyl-1,2,4-triazol-3-yl)methyl]oxetan-3-yl]phenyl]-1H-pyrrolo[2,3-c]pyridin-7-one] yielded an EC50 in the assay with Jurkat cells of less than 100 nM. Also, the IC50 on Cbl-b was less than 100 nM.

For `Cn1cnnc1CC1(c2cccc(-n3cc(C4CC4)c4cc(CN5CCC6(CC6)C5)[nH]c4c3=O)c2)COC1` [Example 76, 2-({5-azaspiro[2.4]heptan-5-yl}methyl)-4-cyclopropyl-6-(3-{3-[(4-methyl-4H-1,2,4-triazol-3-yl)methyl]oxetan-3-yl}phenyl)-1H,6H,7H-pyrrolo[2,3-c]pyridin-7-one], the EC50 with Jurkat cells was in the range of 100 to 1000 nM. On Cbl-b, the IC50 was less than 100 nM.

Regarding `C[C@H]1CCCN(Cc2cc3c(C4CC4)cn(-c4cccc(C5(c6nncn6C)CC(F)(F)C5)c4)c(=O)c3[nH]2)C1` [Example 78, 4-cyclopropyl-6-[3-[3,3-difluoro-1-(4-methyl-1,2,4-triazol-3-yl)cyclobutyl]phenyl]-2-[[(3S)-3-methylpiperidin-1-yl]methyl]-1H-pyrrolo[2,3-c]pyridin-7-one], the EC50 in the assay with Jurkat cells was less than 100 nM. The concentration for half-maximal inhibition (IC50) on Cbl-b is less than 100 nM.

Regarding `Cn1cnnc1C1(c2cccc(-n3cc(C4CC4)c4cc(CN5CCC(F)(F)C5)[nH]c4c3=O)c2)CC(F)(F)C1` [Example 79, 4-cyclopropyl-6-{3-[3,3-difluoro-1-(4-methyl-4H-1,2,4-triazol-3-yl)cyclobutyl]phenyl}-2-[(3,3-difluoropyrrolidin-1-yl)methyl]-1H,6H,7H-pyrrolo[2,3-c]pyridin-7-one], in the assay on Jurkat cells, the EC50 is 100 to 1000 nM. On Cbl-b, this compound yielded an IC50 of 100 to 1000 nM.

Consider `Cn1cnnc1C1(c2cccc(-n3cc(C4CC4)c4cc(CN5CCC[C@@H]5CO)[nH]c4c3=O)c2)CC(F)(F)C1` [Example 82, 4-cyclopropyl-6-{3-[3,3-difluoro-1-(4-methyl-4H-1,2,4-triazol-3-yl)cyclobutyl]phenyl}-2-{[(2R)-2-(hydroxymethyl)pyrrolidin-1-yl]methyl}-1H,6H,7H-pyrrolo[2,3-c]pyridin-7-one], for which the EC50 in the assay with Jurkat cells was in the range of 1000 to 5000 nM. The IC50 on Cbl-b was less than 100 nM.

The compound `Cn1cnnc1C1(c2cccc(-n3cc(C4CC4)c4cc(CNCC5(O)CCC5)[nH]c4c3=O)c2)CC(F)(F)C1` [Example 83, 4-cyclopropyl-6-{3-[3,3-difluoro-1-(4-methyl-4H-1,2,4-triazol-3-yl)cyclobutyl]phenyl}-2-({[(1-hydroxycyclobutyl)methyl]amino}methyl)-1H,6H,7H-pyrrolo[2,3-c]pyridin-7-one] returned an EC50 with Jurkat cells of 100 to 1000 nM. The compound also came in with an IC50 at Cbl-b of less than 100 nM.

In the assay with Jurkat cells, `CC(O)C1(NCc2cc3c(C4CC4)cn(-c4cccc(C5(c6nncn6C)CC(F)(F)C5)c4)c(=O)c3[nH]2)CC1` (stereo not drawn) [Example 84, 4-cyclopropyl-6-{3-[3,3-difluoro-1-(4-methyl-4H-1,2,4-triazol-3-yl)cyclobutyl]phenyl}-2-({[1-(1-hydroxyethyl)cyclopropyl]amino}methyl)-1H,6H,7H-pyrrolo[2,3-c]pyridin-7-one] showed an EC50 of 1000 to 5000 nM. On Cbl-b, this compound displayed an IC50 of less than 100 nM.

Consider `Cn1cnnc1C1(c2cccc(-n3cc(C4CC4)c4cc(CNCC5(CO)CC5)[nH]c4c3=O)c2)CC(F)(F)C1` [Example 85, 4-cyclopropyl-6-{3-[3,3-difluoro-1-(4-methyl-4H-1,2,4-triazol-3-yl)cyclobutyl]phenyl}-2-[({[1-(hydroxymethyl)cyclopropyl]methyl}amino)methyl]-1H,6H,7H-pyrrolo[2,3-c]pyridin-7-one], for which the EC50 in the assay on Jurkat cells fell in the range of 100 to 1000 nM. Further, the half-maximal inhibitory concentration (IC50) at Cbl-b is less than 100 nM.

In turn, `Cn1cnnc1C1(c2cccc(-n3cc(C4CC4)c4cc(CN5CCOC6(CC6)C5)[nH]c4c3=O)c2)CC(F)(F)C1` [Example 86, 4-cyclopropyl-6-{3-[3,3-difluoro-1-(4-methyl-4H-1,2,4-triazol-3-yl)cyclobutyl]phenyl}-2-({4-oxa-7-azaspiro[2.5]octan-7-yl}methyl)-1H,6H,7H-pyrrolo[2,3-c]pyridin-7-one] had an EC50 in the assay on Jurkat cells of 1000 to 5000 nM. This compound also came in with an IC50 at Cbl-b of 100 to 1000 nM.

In the case of `Cn1cnnc1C1(c2cccc(-n3cc(C4CC4)c4cc(CN[C@@H]5CCCS(=O)(=O)C5)[nH]c4c3=O)c2)CC(F)(F)C1` [Example 87, (3R)-3-{[(4-cyclopropyl-6-{3-[3,3-difluoro-1-(4-methyl-4H-1,2,4-triazol-3-yl)cyclobutyl]phenyl}-7-oxo-1H,6H,7H-pyrrolo[2,3-c]pyridin-2-yl)methyl]amino}-1λ^6-thiane-1,1-dione], in the assay on Jurkat cells, the EC50 was more than 5000 nM. The IC50 on Cbl-b fell in the range of 100 to 1000 nM.

Turning to `Cn1cnnc1C1(c2cccc(-n3cc(C4CC4)c4cc(CN5CCC6(CC6)C5)[nH]c4c3=O)c2)CC(F)(F)C1` [Example 88, 2-({5-azaspiro[2.4]heptan-5-yl}methyl)-4-cyclopropyl-6-{3-[3,3-difluoro-1-(4-methyl-4H-1,2,4-triazol-3-yl)cyclobutyl]phenyl}-1H,6H,7H-pyrrolo[2,3-c]pyridin-7-one], the EC50 in the assay on Jurkat cells is less than 100 nM. The IC50 at Cbl-b was less than 100 nM.

The compound `Cn1cnnc1C1(c2cccc(-n3cc(C4CC4)c4cc(CNC5(CF)CCC5)[nH]c4c3=O)c2)CC(F)(F)C1` [Example 89, 4-cyclopropyl-6-{3-[3,3-difluoro-1-(4-methyl-4H-1,2,4-triazol-3-yl)cyclobutyl]phenyl}-2-({[1-(fluoromethyl)cyclobutyl]amino}methyl)-1H,6H,7H-pyrrolo[2,3-c]pyridin-7-one] displayed an EC50 in the assay with Jurkat cells of 100 to 1000 nM. The IC50 on Cbl-b is less than 100 nM.

With `Cn1cnnc1C1(c2cccc(-n3cc(C4CC4)c4cc(CNc5ccc(Cl)cc5F)[nH]c4c3=O)c2)CC(F)(F)C1` [Example 90, 2-{[(4-chloro-2-fluorophenyl)amino]methyl}-4-cyclopropyl-6-{3-[3,3-difluoro-1-(4-methyl-4H-1,2,4-triazol-3-yl)cyclobutyl]phenyl}-1H,6H,7H-pyrrolo[2,3-c]pyridin-7-one], the EC50 in the assay with Jurkat cells was more than 5000 nM. This compound had an IC50 on Cbl-b of more than 5000 nM.

`Cn1cnnc1C1(c2cccc(-n3cc(C4CC4)c4cc(CN[C@@H]5CCOC5)[nH]c4c3=O)c2)CC(F)(F)C1` [Example 91, 4-cyclopropyl-6-{3-[3,3-difluoro-1-(4-methyl-4H-1,2,4-triazol-3-yl)cyclobutyl]phenyl}-2-{[(oxolan-3-yl)amino]methyl}-1H,6H,7H-pyrrolo[2,3-c]pyridin-7-one] displayed an EC50 in the assay on Jurkat cells of more than 5000 nM. In addition, at Cbl-b, the IC50 fell in the range of 100 to 1000 nM.

`Cn1cnnc1C1(c2cccc(-n3cc(C4CC4)c4cc(CN[C@H]5COC[C@@H]5O)[nH]c4c3=O)c2)CC(F)(F)C1` [Example 92] showed an EC50 in the assay with Jurkat cells of more than 5000 nM. Further, the IC50 on Cbl-b fell in the range of 100 to 1000 nM.

`Cn1cnnc1C1(c2cccc(-n3cc(C4CC4)c4cc(CN5CC[C@@H](F)[C@H](O)C5)[nH]c4c3=O)c2)CC(F)(F)C1` [Example 93, 4-cyclopropyl-6-{3-[3,3-difluoro-1-(4-methyl-4H-1,2,4-triazol-3-yl)cyclobutyl]phenyl}-2-{[(3R,4R)-4-fluoro-3-hydroxypiperidin-1-yl]methyl}-1H,6H,7H-pyrrolo[2,3-c]pyridin-7-one] displayed an EC50 with Jurkat cells of 1000 to 5000 nM. Also, at Cbl-b, the IC50 fell in the range of 100 to 1000 nM.

In the assay on Jurkat cells, `C[C@@H]1CN(Cc2cc3c(C4CC4)cn(-c4cccc(C5(c6nncn6C)CC(F)(F)C5)c4)c(=O)c3[nH]2)CCO1` [Example 94, 4-cyclopropyl-6-[3-[3,3-difluoro-1-(4-methyl-1,2,4-triazol-3-yl)cyclobutyl]phenyl]-2-[[(2R)-2-methylmorpholin-4-yl]methyl]-1H-pyrrolo[2,3-c]pyridin-7-one] yielded an EC50 of less than 100 nM. In addition, the IC50 on Cbl-b was less than 100 nM.
